Columns and labels:
Test in all cases: spectrophotometric GDH activity in […] cell homogenate
Format in all cases: biochemical
[1] = molecular target: GDH (glutamate dehydrogenase, GLUD1) (Homo sapiens, UniProt P00367, H507Y)
[2] = molecular target: GDH (glutamate dehydrogenase, GLUD1) (Homo sapiens, UniProt P00367)
[3] = molecular target: GDH (glutamate dehydrogenase, GLUD1) (Homo sapiens, UniProt P00367, S498L)
Chain of GDH (glutamate dehydrogenase, GLUD1) (Homo sapiens, UniProt P00367, S498L) (P00367 54-558 S498L): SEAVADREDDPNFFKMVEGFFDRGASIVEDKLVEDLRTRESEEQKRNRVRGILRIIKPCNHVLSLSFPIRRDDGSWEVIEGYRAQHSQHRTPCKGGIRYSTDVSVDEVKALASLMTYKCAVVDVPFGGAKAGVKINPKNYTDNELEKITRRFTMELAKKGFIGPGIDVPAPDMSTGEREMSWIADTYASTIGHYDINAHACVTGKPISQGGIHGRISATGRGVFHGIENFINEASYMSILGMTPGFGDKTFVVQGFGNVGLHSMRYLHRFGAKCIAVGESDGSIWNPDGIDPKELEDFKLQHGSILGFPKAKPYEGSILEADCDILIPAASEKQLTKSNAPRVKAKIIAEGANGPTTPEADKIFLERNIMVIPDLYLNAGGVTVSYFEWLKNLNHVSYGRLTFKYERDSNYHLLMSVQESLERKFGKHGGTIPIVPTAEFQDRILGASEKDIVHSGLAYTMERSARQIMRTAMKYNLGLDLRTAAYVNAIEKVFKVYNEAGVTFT

Chain of GDH (glutamate dehydrogenase, GLUD1) (Homo sapiens, UniProt P00367, H507Y) (P00367 54-558 H507Y): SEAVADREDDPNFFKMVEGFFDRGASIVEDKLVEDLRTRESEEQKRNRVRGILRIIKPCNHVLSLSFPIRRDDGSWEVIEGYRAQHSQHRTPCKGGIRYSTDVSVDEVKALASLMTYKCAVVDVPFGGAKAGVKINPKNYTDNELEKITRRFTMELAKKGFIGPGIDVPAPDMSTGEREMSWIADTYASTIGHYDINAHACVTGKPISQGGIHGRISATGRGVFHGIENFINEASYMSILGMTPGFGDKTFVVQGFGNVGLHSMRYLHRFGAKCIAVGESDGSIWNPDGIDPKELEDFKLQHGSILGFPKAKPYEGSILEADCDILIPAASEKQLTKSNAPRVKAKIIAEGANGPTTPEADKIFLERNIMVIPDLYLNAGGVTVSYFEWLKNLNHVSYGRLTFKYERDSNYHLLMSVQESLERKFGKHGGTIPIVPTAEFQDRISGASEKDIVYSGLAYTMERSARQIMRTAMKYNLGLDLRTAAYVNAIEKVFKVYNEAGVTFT
Chain of GDH (glutamate dehydrogenase, GLUD1) (Homo sapiens, UniProt P00367) (P00367 54-558): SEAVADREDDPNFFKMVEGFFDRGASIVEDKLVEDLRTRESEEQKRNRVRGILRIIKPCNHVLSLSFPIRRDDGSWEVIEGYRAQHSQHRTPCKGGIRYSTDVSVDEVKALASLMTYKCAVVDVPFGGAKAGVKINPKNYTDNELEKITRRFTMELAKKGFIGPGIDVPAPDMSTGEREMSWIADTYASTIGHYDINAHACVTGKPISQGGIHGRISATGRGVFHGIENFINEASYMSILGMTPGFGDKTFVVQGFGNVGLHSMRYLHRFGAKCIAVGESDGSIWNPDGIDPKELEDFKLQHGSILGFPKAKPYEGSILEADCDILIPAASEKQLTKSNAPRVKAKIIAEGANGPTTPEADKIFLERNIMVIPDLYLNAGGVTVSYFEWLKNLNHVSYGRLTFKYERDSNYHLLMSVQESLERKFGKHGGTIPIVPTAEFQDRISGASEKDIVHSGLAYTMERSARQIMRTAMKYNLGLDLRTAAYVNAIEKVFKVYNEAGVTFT

| SMILES | IC50 [1] [nM] | IC50 [2] [nM] | IC50 [3] [nM] |
| --- | --- | --- | --- |
| O=C(O[C@@H]1Cc2c(O)cc(O)cc2O[C@@H]1c1cc(O)c(O)c(O)c1)c1cc(O)c(O)c(O)c1 [EGCG] | 1020 | 1050 | 1070 |
| Nc1nc2c(ncn2[C@@H]2O[C@H](COP(=O)(O)OP(=O)(O)OP(=O)(O)O)[C@@H](O)[C@H]2O)c(=O)[nH]1 [GTP] | 314000 | 48 | 40700 |

Reference: article PMC5545170 (Pediatric diabetes, 2017)
